Laboratory results from patent publication US12648904B2, “Porous nanocomposite medical implant device” (Lynthera Corporation, priority 2020, dated 2026).

Assay: Fatty acid loading into contact lenses, by weighing the dry lens before and after soaking
Type: physicochemical
Conditions: for Fatty acid loading / Fatty acid by weight of the dried lens: ACUVUE TruEye lens; for Fatty acid loading: soaking concentration 20 mg/mL fatty acid in ethanol; for Fatty acid by weight of the dried lens: 7.5 mg/mL fatty acid in ethanol, 24 hours at 23° C.
Protocol: Two commercial silicone hydrogel contact lenses were tested: ACUVUE TruEye® (46% Water+54% Narafilcon A) and ACUVUE Oasys® (38% Water+62% Senofilcon A). TruEye® is a daily disposable contact lens while Oasys® is an approved contact lens for extended wear. The lenses were rinsed with deionized water and then air-dried before being soaked in 4 mL of 19 mg/mL, 27 mg/mL or 40 mg/mL of oleic acid in ethanol. The soaking duration was 24 hours at room temperature. Following the loading step, the contact lenses were taken out and excess fatty acid-ethanol solution was blotted out from the lens surface. Lenses were washed in deionized water for 1 hour and subsequently air-dried overnight.
The loading amount of OA was determined by weighing the dry lens before and after the fatty acid loading period as shown in FIG. 4. Oleic acid loading has a linear dependency on the concentration of the loading solutions. Furthermore, Oasys® has higher affinity for oleic acid than TruEye® at concentrations between […] and 27 mg/mL. For higher concentrations, the affinity for oleic acid is equivalent for both contact lenses. Therefore, the loading of Oleic acid into lens can be adjusted by this correlation.
1-day ACUVUE Moist® (58% Water+42% Etafi Icon A) are conventional hydrogel commercial lenses that are mostly composed of poly-2-hydroxyethyl methacrylate (pHEMA). Lenses were rinsed with PBS and then air-dried before use. Dry lenses were soaked in 4 mL of 100 mg/mL of oleic acid in a mixture of ethanol and deionized water (75/25 ethanol/water). […] Following the loading step, the contact lenses were taken out and excess fatty acid-ethanol solution was blotted out from the lens surface. Lenses were washed in PBS for 1 hour and then were air-dried overnight. The loading amount of OA was determined by weighing the dry lens before and after the fatty acid loading period.
ACUVUE TruEye® (diopter −3.5) contact lenses were rinsed with deionized. water and then air-dried overnight before use. One batch of contact lenses were soaked in 4 mL of 7.5 mg,/mL of myristic acid in ethanol. Another batch of contact lens were soaked in 4 mL of 7.5 mg/mL of stearic acid in ethanol. A third batch of lenses was used as a control (no fatty acid loading). The soaking duration was 24 hours at 23° C. Following the loading step, the contact lenses were taken out and excess fatty acid-ethanol solution was blotted out from the lens surface. Lenses were washed in deionized water for 1 hour and subsequently air-dried overnight. All contact lenses were optically transparent in the hydrated state. The wt % of fatty add retain by the contact lens was determined by recording the increase in the weight of the dried lens after the soaking and drying procedure. For both stearic and myristic acid, approximately 1.5% ±0.5% by weight of the dried lens was composed of the fatty acid.

Row | Structure (SMILES) | Fatty acid loading | Fatty acid by weight of the dried lens | Maximum oleic acid loading (1-day ACUVUE Moist lens, 100 to 500 mg/mL oleic acid in 75/25 ethanol/water)
1 | CCCCC/C=C\C/C=C\CCCCCCCC(=O)O [linoleic acid] | 6.2 wt % |  | 
2 | CCCCCCCCCCCCCC(=O)O [myristic acid, Myristic Acid (Tetradecanoic Acid)] |  | approximately 1.5% | 
3 | CCCCCCCC/C=C\CCCCCCCC(=O)O [oleic acid] | 6.1 wt % |  | 2.9 wt. %
4 | CCCCCCCCCCCCCCCCCC(=O)O [stearic acid, Stearic Acid (Octadecanoic Acid)] |  | approximately 1.5% | 
5 | CC/C=C\C/C=C\C/C=C\CCCCCCCC(=O)O [α-linolenic acid] | 6.0 wt % |  | 
